Source: PubChem BioAssay AID248 (DTP/NCI, 2004)
“And” between values parts separate entries of the source, which are not always exact repeats. Equal entries are not always repeated. Inconclusive results and toxic doses are left out.

System: L1210 leukemia ip in BDF1 mice, survival T/C
Test: NCI In Vivo Anticancer Drug Screen. Data for tumor model L1210 Leukemia (intraperitoneal) in B6D2F1 (BDF1) mice
Conditions: endpoint: mean survival time, higher = longer survival
Summary of the method: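 Survival endpoint. Drug-treated group vs vehicle group, expressed as T divided by C. Tumor passaged by transplantation.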

[1] = dose: 100.0 mg/kg/injection, schedule: Q04DX002 (ip), vehicle: Klucel (hydroxypropylcellulose) (HPC)
[2] = dose: 200.0 mg/kg/injection, schedule: Q04DX002 (ip), vehicle: Klucel (hydroxypropylcellulose) (HPC)
[3] = dose: 400.0 mg/kg/injection, schedule: Q04DX002 (ip), vehicle: Klucel (hydroxypropylcellulose) (HPC)
[4] = dose: 300.0 mg/kg/injection, schedule: Q01DX001 (ip), vehicle: saline
[5] = dose: 100.0 mg/kg/injection, schedule: Q01DX001 (ip), vehicle: Klucel (hydroxypropylcellulose) (HPC)
[6] = dose: 200.0 mg/kg/injection, schedule: Q01DX001 (ip), vehicle: Klucel (hydroxypropylcellulose) (HPC)
[7] = dose: 100.0 mg/kg/injection, schedule: Q04DX003 (ip), vehicle: Klucel (hydroxypropylcellulose) (HPC)
[8] = dose: 200.0 mg/kg/injection, schedule: Q04DX003 (ip), vehicle: Klucel (hydroxypropylcellulose) (HPC)
[9] = dose: 400.0 mg/kg/injection, schedule: Q04DX003 (ip), vehicle: Klucel (hydroxypropylcellulose) (HPC)

O=c1cc(C(F)(F)F)[nH]c2ccc(F)cc12
T/C (dose: 5.0 mg/kg/injection, schedule: Q04DX003 (ip), vehicle: saline with Tween-80): 102 % of control | T/C (dose: 10.0 mg/kg/injection, schedule: Q04DX003 (ip), vehicle: saline with Tween-80): 90 % of control | T/C (dose: 20.0 mg/kg/injection, schedule: Q04DX003 (ip), vehicle: saline with Tween-80): 97 % of control

CSc1ccccc1NC(=O)c1ccccc1
T/C [1]: 93 % of control | T/C [2]: 86 % of control | T/C [3]: 96 % of control

COc1ccc(C(=O)CCC(=O)O)cc1OC
T/C (dose: 50.0 mg/kg/injection, schedule: Q01DX001 (ip), vehicle: carboxymethylcellulose (CMC)): 97 % of control | T/C (dose: 100.0 mg/kg/injection, schedule: Q01DX001 (ip), vehicle: carboxymethylcellulose (CMC)): 100 % of control | T/C (dose: 200.0 mg/kg/injection, schedule: Q01DX001 (ip), vehicle: carboxymethylcellulose (CMC)): 92 % of control | T/C (dose: 400.0 mg/kg/injection, schedule: Q01DX001 (ip), vehicle: carboxymethylcellulose (CMC)): 92 % of control

CC(O)(C#N)C(F)(F)F (centres undefined)
T/C (dose: 75.0 mg/kg/injection, schedule: Q01DX001 (ip), vehicle: saline): 102 % of control | T/C (dose: 150.0 mg/kg/injection, schedule: Q01DX001 (ip), vehicle: saline): 91 % of control | T/C [4]: 105 % of control

Nc1ncnc2nc(-c3ccc(-c4ccccc4)cc3)[nH]c12
T/C (dose: 50.0 mg/kg/injection, schedule: Q01DX001 (ip), vehicle: Klucel (hydroxypropylcellulose) (HPC)): 92 % of control | T/C [5]: 88 % of control | T/C [6]: 97 % of control

CC([NH-])CO.CC([NH-])CO.[Cu+2] (centres undefined)
T/C (dose: 12.5 mg/kg/injection, schedule: Q01DX001 (ip), vehicle: saline): 97 % of control | T/C (dose: 25.0 mg/kg/injection, schedule: Q01DX001 (ip), vehicle: saline): 108 % of control

CCCCOP(=O)(CCCC)OCCCC
T/C (dose: 12.5 mg/kg/injection, schedule: Q01DX009 (ip), vehicle: saline with Tween-80): 103 % of control | T/C (dose: 12.5 mg/kg/injection, schedule: Q04DX003 (ip), vehicle: saline with Tween-80): 86 % of control | T/C (dose: 25.0 mg/kg/injection, schedule: Q01DX009 (ip), vehicle: saline with Tween-80): 92 % of control | T/C (dose: 25.0 mg/kg/injection, schedule: Q04DX003 (ip), vehicle: saline with Tween-80): 104 % of control | T/C (dose: 50.0 mg/kg/injection, schedule: Q01DX009 (ip), vehicle: saline with Tween-80): 92 % of control | T/C (dose: 50.0 mg/kg/injection, schedule: Q04DX003 (ip), vehicle: saline with Tween-80): 93 % of control and 94 % of control

Cc1cccc(OS(=O)(=O)c2ccccc2[N+](=O)[O-])c1
T/C (dose: 100.0 mg/kg/injection, schedule: Q01DX009 (ip), vehicle: saline sonified): 103 % of control | T/C [7]: 93 % of control | T/C [8]: 96 % of control | T/C (dose: 400.0 mg/kg/injection, schedule: Q01DX009 (ip), vehicle: saline sonified): 111 % of control | T/C [9]: 90 % of control

CSc1nc(C(Cl)Cl)cnc1Cl
T/C [1]: 102 % of control | T/C [2]: 91 % of control | T/C [3]: 105 % of control

COC(=O)C(=[N+]=[N-])C(=O)OC
T/C [5]: 92 % of control | T/C (dose: 100.0 mg/kg/injection, schedule: Q01DX009 (ip), vehicle: Klucel (hydroxypropylcellulose) (HPC)): 98 % of control | T/C [7]: 102 % of control | T/C [6]: 92 % of control | T/C (dose: 200.0 mg/kg/injection, schedule: Q01DX009 (ip), vehicle: Klucel (hydroxypropylcellulose) (HPC)): 98 % of control | T/C [8]: 101 % of control | T/C (dose: 400.0 mg/kg/injection, schedule: Q01DX001 (ip), vehicle: Klucel (hydroxypropylcellulose) (HPC)): 93 % of control | T/C (dose: 400.0 mg/kg/injection, schedule: Q01DX009 (ip), vehicle: Klucel (hydroxypropylcellulose) (HPC)): 107 % of control | T/C [9]: 104 % of control

CC1COCC(C)OCO1 (centres undefined)
T/C (dose: 50.0 mg/kg/injection, schedule: Q01DX009 (ip), vehicle: acetone): 102 % of control | T/C (dose: 100.0 mg/kg/injection, schedule: Q01DX009 (ip), vehicle: acetone): 102 % of control | T/C (dose: 100.0 mg/kg/injection, schedule: Q04DX003 (ip), vehicle: acetone): 103 % of control | T/C (dose: 200.0 mg/kg/injection, schedule: Q01DX009 (ip), vehicle: acetone): 101 % of control | T/C (dose: 200.0 mg/kg/injection, schedule: Q04DX003 (ip), vehicle: acetone): 94 % of control | T/C (dose: 400.0 mg/kg/injection, schedule: Q04DX003 (ip), vehicle: acetone): 114 % of control

CCCC1(CCC)CN(C)C1=O
T/C (dose: 12.5 mg/kg/injection, schedule: Q01DX009 (ip), vehicle: saline): 97 % of control | T/C (dose: 25.0 mg/kg/injection, schedule: Q01DX009 (ip), vehicle: saline): 88 % of control | T/C (dose: 25.0 mg/kg/injection, schedule: Q04DX003 (ip), vehicle: saline): 104 % of control | T/C (dose: 50.0 mg/kg/injection, schedule: Q01DX009 (ip), vehicle: saline): 100 % of control | T/C (dose: 50.0 mg/kg/injection, schedule: Q04DX003 (ip), vehicle: saline): 98 % of control | T/C (dose: 100.0 mg/kg/injection, schedule: Q01DX009 (ip), vehicle: saline): 102 % of control | T/C (dose: 100.0 mg/kg/injection, schedule: Q04DX003 (ip), vehicle: saline): 98 % of control | T/C (dose: 200.0 mg/kg/injection, schedule: Q01DX009 (ip), vehicle: saline): 102 % of control | T/C (dose: 200.0 mg/kg/injection, schedule: Q04DX003 (ip), vehicle: saline): 98 % of control

O=c1oc2ccccc2c(O)c1Cc1c(O)c2ccccc2oc1=O
T/C (dose: 12.5 mg/kg/injection, schedule: Q01DX009 (ip), vehicle: Klucel (hydroxypropylcellulose) (HPC)): 99 % of control | T/C (dose: 25.0 mg/kg/injection, schedule: Q01DX009 (ip), vehicle: Klucel (hydroxypropylcellulose) (HPC)): 86 % of control | T/C (dose: 50.0 mg/kg/injection, schedule: Q01DX009 (ip), vehicle: Klucel (hydroxypropylcellulose) (HPC)): 86 % of control and 92 % of control

C=C([Si](C)(C)C)[Si](C)(C)C
T/C (dose: 100.0 mg/kg/injection, schedule: Q04DX003 (ip), vehicle: saline with Tween-80): 102 % of control | T/C (dose: 200.0 mg/kg/injection, schedule: Q04DX003 (ip), vehicle: saline with Tween-80): 102 % of control | T/C (dose: 400.0 mg/kg/injection, schedule: Q04DX003 (ip), vehicle: saline with Tween-80): 94 % of control

CCNC1=C(N2CC2)C(=O)C(NCC)=C(N2CC2)C1=O
T/C (dose: 0.04 mg/kg/injection, schedule: Q01DX009 (ip), vehicle: saline): 95 % of control and 102 % of control | T/C (dose: 0.09 mg/kg/injection, schedule: Q01DX009 (ip), vehicle: saline): 102 % of control and 111 % of control | T/C (dose: 0.09 mg/kg/injection, schedule: Q04DX003 (ip), vehicle: saline): 100 % of control and 122 % of control | T/C (dose: 0.18 mg/kg/injection, schedule: Q01DX009 (ip), vehicle: saline): 108 % of control and 120 % of control | T/C (dose: 0.18 mg/kg/injection, schedule: Q04DX003 (ip), vehicle: saline): 104 % of control and 113 % of control | T/C (dose: 0.37 mg/kg/injection, schedule: Q01DX009 (ip), vehicle: saline): 168 % of control | T/C (dose: 0.37 mg/kg/injection, schedule: Q04DX003 (ip), vehicle: saline): 113 % of control and 114 % of control | T/C (dose: 0.75 mg/kg/injection, schedule: Q01DX001 (ip), vehicle: saline): 120 % of control | T/C (dose: 0.75 mg/kg/injection, schedule: Q01DX009 (ip), vehicle: saline): 151 % of control | T/C (dose: 0.75 mg/kg/injection, schedule: Q04DX003 (ip), vehicle: saline): 120 % of control and 124 % of control | T/C (dose: 1.5 mg/kg/injection, schedule: Q01DX001 (ip), vehicle: saline): 168 % of control | T/C (dose: 1.5 mg/kg/injection, schedule: Q01DX009 (ip), vehicle: saline): 191 % of control and 212 % of control | T/C (dose: 1.5 mg/kg/injection, schedule: Q04DX003 (ip), vehicle: saline): 157 % of control | T/C (dose: 3.0 mg/kg/injection, schedule: Q01DX001 (ip), vehicle: saline): 157 % of control | T/C (dose: 3.0 mg/kg/injection, schedule: Q01DX009 (ip), vehicle: saline): 93 % of control and 117 % of control | T/C (dose: 3.0 mg/kg/injection, schedule: Q04DX003 (ip), vehicle: saline): 175 % of control | T/C (dose: 3.12 mg/kg/injection, schedule: Q04DX003 (ip), vehicle: saline): 150 % of control | T/C (dose: 6.0 mg/kg/injection, schedule: Q04DX003 (ip), vehicle: saline): 101 % of control | T/C (dose: 6.25 mg/kg/injection, schedule: Q04DX003 (ip), vehicle: saline): 95 % of control

CCCCCCCCC(=O)NCCCNC(=O)CCCCCCCC
T/C (dose: 30.0 mg/kg/injection, schedule: Q01DX001 (ip), vehicle: saline): 96 % of control | T/C (dose: 100.0 mg/kg/injection, schedule: Q01DX001 (ip), vehicle: saline): 91 % of control | T/C [4]: 93 % of control
